Reference: patent publication US10729710B2, “Catecholamine prodrugs for use in the treatment of Parkinson's disease” (H. Lundbeck A/S, priority 2017, dated 2020)
Counter-ions that a name gives are not always drawn.

What was measured:
[1] = PK experiments in rats: plasma compound (I) after oral dosing of prodrugs; type: in vivo, Han Wistar rats; details: Wistar rats, FIG. 2, doses equal to 287 μg/kg of compound (I)
Procedure: Plasma was placed on water-ice following collection. Final storage at approximately −70° C.
Mobile phase B: Acetonitrile. […] Flow rate 0.5 mL/min.
The rats had unrestricted access to the diet.
Mobile phase B: Acetonitrile+0.2% formic acid. […] Flow rate 0.3 mL/min.
Han Wistar rats were supplied by Envigo, UK. […] The rats received a standard laboratory diet Teklad 2014C. The rats had unrestricted access to the diet.

hepatocytes from rat = test: Conversion to compound (I) in rat hepatocytes; type: in vitro ADME; details: 1 μg/mL, 37° C., 0.25-60 minutes, FIG. 7a
Procedure: (§1) The cell concentration at incubation was 1×10^6 viable cells/mL. The incubations were performed in glass tubes at 37° C. with a total incubation volume of 3.5 mL and with duplicate incubations for each test item. The 3.5 mL of hepatocyte suspension was equilibrated for 10 minutes in a water bath set to 37° C. where after the incubations were initiated by adding 3.5 μL of a stock solution of the test item in DMSO (Dimethyl sulfoxide) and gently inverting the tubes. The final solvent concentration in the incubations was 0.1% DMSO. Samples of 600 μL were withdrawn from the incubations at the pre-determined time points of 0.25, 5, 15, 30 and 60 minutes after ensuring homogeneity of hepatocyte suspensions. The withdrawn volume was added to 1 mL Nunc cryo tubes on wet ice containing 60 μL of ice cold ascorbic acid (100 mg/mL) and 30 μL of ice cold 100 mM saccharic acid 1.4-lactone in 0.5 M citric acid. The tubes were mixed and 35 μL of a solution of ice cold 20% formic acid was added. The tubes were mixed thoroughly and stored at −80° C. awaiting analysis. Analysis method and Instrumentation used for analysis of (I) from dosing (Id-ia), (Id-ib), (Id-iia) and (Id-iib), were the one described in Examples 4 and 5 below in the section “Instrumentation used for analysis of compound (I) from dosing of compounds (Ic), (Id-ia), (Id-ib), (Id-iia), (Id-iib), (Id-iab) and (Id-iiab).”
(§2) Analysis method and Instrumentation used for analysis of (I) from dosing (Id-iab) and (Id-iiab) consisted of mixing equal aliquots of the samples and precipitation solution (acetonitrile (MeCN) with 10% methanol (MeOH) and 1% formic acid), followed by centrifugation at 4° C. at 16000 g for 10 minutes. Supernatants were collected and analysed by LC-MS/MS. Mass spectrometer: Waters Acquity—Waters Xevo TQ-MS. Analytical column: Acquity UPLC HSS T3, 100×2.1 mm, 1.8 μm. Mobile phase A: 0.2% formic acid in water. Mobile phase B: 0.2% formic acid in acetonitrile. Gradient run from 95/5% to 60/40 in 5 min. Flow rate 0.3 mL/min. MRM monitoring of (I) in the study samples and in the analytical standards.

hepatocytes from human = test: Conversion to compound (I) in human hepatocytes; type: in vitro ADME; details: 1 μg/mL, 37° C., 0.25-60 minutes, FIG. 7b
Procedure: as §1, §2

[2] = Stability of the disulfate in acidic conditions (LCMS); type: physicochemical; details: LCMS with acidic eluent
[3] = in man after oral dosing; cited from earlier work

SMILES | plasma profile of compound (I) after oral dosing (in words) [1] | conversion to compound (I) in rat hepatocytes (hepatocytes from rat) | conversion to compound (I) in human hepatocytes (hepatocytes from human) | stability in acidic conditions (in words) [2] | oral bioavailability [3] [%]
CCCN1CCC[C@@H]2Cc3c(ccc(OS(=O)(=O)O)c3OS(=O)(=O)O)C[C@H]21 [(Id-iiab), (4aR,10aR)-1-propyl-1,2,3,4,4a,5,10,10a-octahydrobenzo[g]quinoline-6,7-diyl bis(hydrogen sulfate)] | slower absorption rate avoiding rapid peak concentrations accompanied by a sustained exposure of compound (I) in plasma | could not be detected | could not be detected | instability | 
CCCc1cc2c(s1)CN[C@@H]1CCc3cc(OC(C)=O)c(OC(C)=O)cc3[C@@H]21 [Adrogolide] |  |  |  |  | ~4
